Type in all cases: in vivo, mouse
Data set [1] deals with Balb/C mice. The data set is described as follows: Ovalbumin (OVA)-induced allergic conjunctivitis. Particulars: 0.1% instillation D22 to D24, 20 minutes after the last OVA challenge. The method, then:
To investigate the anti-inflammatory effect of CpdX or CpdX-D3 on an allergic conjunctivitis, Balb/C mice were intraperitoneally sensitized with 50 μg OVA with alum on both days D1 and D8, and then challenged from D15 to D21 with 250 μg OVA in 5 μL of sterilized vehicle (0.9% NaCl), which were directly instilled onto the conjunctival sac. From D22 to D24, mice were divided into several groups, and received instillations with either OVA alone, OVA together with 0.1% of either Dex, CpdX, CpdX(eA), CpdX(eB), CpdX-D3, CpdX-D3(eA) or CpdX-D3(eB).
The clinical appearance of mouse eyes was evaluated 20 minutes after the last instillation on D24. Clinical signs (conjunctival hyperemia, lid edema and tearing) were scored to evaluate the occurrence and severity of conjunctivitis as described by Gimenes et al. (2015. Experimental Eye Research 134:24-32). Parameters were graded on a scale ranging from 0 to 3, (0=absence, 1=mild, 2=moderate, and 3=severe symptoms), each animal receiving a total clinical score ranging from 0 to 9. The data were expressed as mean±SEM with at least four mice per treatment.

Data set [2] deals with B6 male mice. The data set is described as follows: Insulin level, insulin tolerance test and liver insulin signalling after three-month treatment. Particulars: three months; conclusion. As for the experimental part: B6 male mice (8-week-old) were subjected daily for three months to a subcutaneous injection of either vehicle (NaCl 0.9%), Dex, CpdX, CpdX(eA), CpdX(eB), CpdX-D3, CpdX-D3(eA) or CpdX-D3(eB) (1 mg/kg body weight, diluted in vehicle). After three months, the blood was collected at 10 a.m. by retro-orbital puncture in lithium-heparin coated vials, and the plasmatic level of insulin was determined.
For the intraperitoneal insulin tolerance test (IPITT), mice were fasted for 6 hours before test. The blood glucose concentration was measured both before (T0) and during a one-hour period after insulin i.p. injection (0.75 U/kg body weight).
Following this three-month treatment, liver samples were harvested and lysed in the RIPA buffer (20 mM Tris pH 8, 150 mM NaCl, 10% glycerol, 1% NP-40 and 2 mM EDTA). Antibodies from Cell Signaling were used to assess by Western-Blotting the relative level of p-IRS1 (S318), IRS-1, p-AKT (S473) and AKT.

In data set [3] the test system is B6 male mice. The data set is described as follows: Corticosterone synthesis and adrenal gland after three-month treatment. Particulars: for plasmatic corticosterone level: at 10 a.m., compared to control mice (Vehicle); for cortex layers, most notably the fasciculata zone, of the adrenal glands / glomerulosa zone of the adrenal cortex / transcripts of Cyp11a, Cyp11b1 and HSD3β genes in adrenal glands: three months; for cortex layers, most notably the fasciculata zone, of the adrenal glands / glomerulosa zone of the adrenal cortex: histology; for glomerulosa zone of the adrenal cortex: 'but not' = not decreased; for transcripts of Cyp11a, Cyp11b1 and HSD3β genes in adrenal glands: q-RT-PCR. As for the experimental part:
B6 male mice (8-week-old) were daily subjected for three months to either a subcutaneous injection of vehicle (NaCl 0.9%), Dex, CpdX, CpdX(eA), CpdX(eB), CpdX-D3, CpdX-D3(eA) or CpdX-D3(eB) (1 mg/kg body weight, diluted in vehicle).
Following this long-term treatment, blood was collected at 10 a.m. and 6 p.m. by retro-orbital puncture in lithium-heparin coated vials, and the plasmatic level of corticosterone was determined. Adrenal glands were harvested and weighted. RNA transcripts were extracted and transcripts of the Cyp11a, Cyp11b1, Cyp11b2 and HSD3β genes were analyzed by q-RT-PCR. Histological analyses of the adrenal glands were also carried out.

Data set [4] deals with B6 male mice. Nature of the data set: Organ weights (thymus, spleen, adrenal gland, kidney) after three-month treatment. Particulars: s.c. 1 mg/kg daily, three months. As for the experimental part: B6 male mice (8-week-old) were daily subjected for three months to a subcutaneous injection of either vehicle (NaCl 0.9%), Dex, CpdX, CpdX(eA), CpdX(eB), CpdX-D3, CpdX-D3(eA) or CpdX-D3(eB) (1 mg/kg body weight, diluted in vehicle). Following these treatments, four organs (thymus, spleen, adrenal gland and kidney) were harvested and weighted.

Data set [5] has as its system Balb/C mice. Nature of the data set: Dextran sodium sulfate (DSS)-induced ulcerative colitis. The settings on record: for pro-inflammatory genes overexpressed in DSS-induced ulcerative colitis (IL-1β, IL-6, IL-17a, IL-17f, TSLP, MMP13): colon, q-RT-PCR, D14; for colonic villus/crypt structure / mucosal and submucosal cell infiltration: i.p. 1 mg/kg on D11, D12, D13, H&E histology. The method, then: To investigate the anti-inflammatory activity of CpdX and CpdX-D3 on a Th17 ulcerative colitis, Balb/C mice were treated with 3% DSS in drinking water for 13 days, with or without an intraperitoneal administration of either Dex, CpdX, CpdX(eA), CpdX(eB), CpdX-D3, CpdX-D3(eA) or CpdX-D3(eB) (1 mg/kg of body weight) on D11, D12 and D13.
At D14, RNA transcripts were extracted from mouse colons. IL-1β, IL-6, IL-17a, IL-17f, TSLP and MMP13 transcripts were analyzed by q-RT-PCR. Colon samples were also harvested for histological analyses (with H&E staining).

Data set [6] has as its system B6 male mice. Nature of the data set: Blood glucose and intraperitoneal glucose tolerance test after three-month treatment. The settings on record: for control of the blood glucose level: three months, conclusion; for blood glucose level in intraperitoneal glucose tolerance test (IPGTT): two-hour period after glucose i.p. injection ([…] body weight). As for the experimental part:
B6 male mice (8-week-old) were daily subjected for three months to a subcutaneous injection of either vehicle (NaCl 0.9%), Dex, CpdX, CpdX(eA), CpdX(eB), CpdX-D3, CpdX-D3(eA) or CpdX-D3(eB) (1 mg/kg body weight, diluted in vehicle). Mice were over-night-fasted. Mouse blood glucose concentration was measured before (T0) and during two hours (T120) after glucose i.p. injection ([…] body weight).

The subject of data set [7] is Balb/C mice. The data set is described as follows: Skin atrophy after 8-day topical treatment of dorsal skin. Particulars: for epidermal thickness: eight-day topical treatment, morphometric analysis; for transcription of the REDD1 gene in dorsal skin: topical 8 days, 1 nmole/cm^2, 'but not' = not increased. The source says: To investigate whether, similarly to Dex, a topical administration of CpdX could result in a skin atrophy, Balb/C mice were shaved on the dorsal skin. Ethanol (vehicle), Dex, CpdX or either one of its two enantiomers CpdX(eA) or CpdX(eB), as well as the deuterated form CpdX-D3 or either one of its two enantiomers CpdX-D3(eA) or CpdX-D3(eB), were topically applied onto the dorsal skin for 8 days.
Upon completion of the treatments, RNA transcripts were extracted from dorsal skin samples and the transcripts of Kindlin-1 and REDD1 genes were analyzed by q-RT-PCR. Histological and morphometric analyses of the dorsal skin were also performed.

Consider two molecules from patent US20190151283A1, “NON-STEROIDAL SELECTIVE GLUCOCORTICOID RECEPTOR AGONISTIC MODULATORS (SEGRAMs) AND USES THEREOF” (ASSOCIATION POUR LA RECHERCHE À L'IGBMC (ARI), priority 2017, published 2019).

With `[2H]C([2H])([2H])Oc1ccc(F)cc1C(C)(C)CC(O)(CNc1ccc2c(c1)COC2=O)C(F)(F)F` (centres unmarked) [CpdX-D3(eB), 5-{4-[2-(methoxy-D3)-5-fluorophenyl]-2-hydroxy-4-methyl-2-(trifluoromethyl)pentylamino}isobenzofuran-1(3H)-one], the “clinical signs of allergic conjunctivitis (conjunctival hyperemia, lid edema and tearing)” value in the data set on Balb/C mice [1] was “considerably reduced”. For the same molecule, in the data set on B6 male mice [2], the insulin resistance entry is on record as “does not induce”. In the data set with B6 male mice [3], the plasmatic corticosterone level entry was “much higher”; the “cortex layers, most notably the fasciculata zone, of the adrenal glands” value was “markedly increased”; the “glomerulosa zone of the adrenal cortex” value was “but not”; the “transcripts of Cyp11a, Cyp11b1 and HSD3β genes in adrenal glands” value was “increased”. Moreover, in the data set on B6 male mice [4], the spleen weight entry is “not decreased”, the “thymus apoptosis / thymus found” value is on record as “did not result in any significant thymus apoptosis” and the “weight of the adrenal gland” value is on record as “increased”. In the data set with Balb/C mice [5], the “pro-inflammatory genes overexpressed in DSS-induced ulcerative colitis (IL-1β, IL-6, IL-17a, IL-17f, TSLP, MMP13)” value is “similarly repressed”; the colonic villus/crypt structure result is reported as “almost reestablished”; the “mucosal and submucosal cell infiltration” value is “significantly decreased”. Further, in the data set with B6 male mice [6], the “control of the blood glucose level” value is “does not significantly affect” and the “blood glucose level in intraperitoneal glucose tolerance test (IPGTT)” value is “no significant difference”. In the data set on Balb/C mice [7], the epidermal thickness entry is given as “not significantly decreased” and the “transcription of the REDD1 gene in dorsal skin” value is “but not”.

With `COc1ccc(F)cc1C(C)(C)CC(O)(CNc1ccc2c(c1)COC2=O)C(F)(F)F` (single isomer, unassigned) [CpdX(eA), 5-[4-(5-fluoro-2-methoxyphenyl)-2-hydroxy-4-methyl-2-(trifluoromethyl)pentylamino]-isobenzofuran-1(3H)-one], the “clinical signs of allergic conjunctivitis (conjunctival hyperemia, lid edema and tearing)” value with Balb/C mice [1] is reported as “considerably reduced”. Further, the insulin resistance entry in the data set with B6 male mice [2] is “does not induce”. In the data set on B6 male mice [3], the plasmatic corticosterone level result is listed as “much higher”; the “cortex layers, most notably the fasciculata zone, of the adrenal glands” value is “markedly increased”; the “glomerulosa zone of the adrenal cortex” value is reported as “but not”; the “transcripts of Cyp11a, Cyp11b1 and HSD3β genes in adrenal glands” value is “increased”. In the data set with B6 male mice [4], the spleen weight entry is “not decreased”, the “thymus apoptosis / thymus found” value is on record as “did not result in any significant thymus apoptosis” and the “weight of the adrenal gland” value was “increased”. In the data set on Balb/C mice [5], the “pro-inflammatory genes overexpressed in DSS-induced ulcerative colitis (IL-1β, IL-6, IL-17a, IL-17f, TSLP, MMP13)” value is given as “similarly repressed”; the colonic villus/crypt structure result is reported as “almost reestablished”; the “mucosal and submucosal cell infiltration” value is given as “significantly decreased”. In addition, in the data set with B6 male mice [6], the “control of the blood glucose level” value is given as “does not significantly affect” and the “blood glucose level in intraperitoneal glucose tolerance test (IPGTT)” value was “no significant difference”. Moreover, in the data set on Balb/C mice [7], the epidermal thickness result is given as “not significantly decreased” and the “transcription of the REDD1 gene in dorsal skin” value was “but not”.
